The record followed here is US5089516A, “1-phenyl-3,5-pyrazolidinedione hydroxystyrene compounds which have tyrosine kinase inhibiting activity” (Kanegafuchi Kagaku Kogyo Kabushiki Kaisha, priority 1987, dated 1992).

In brackets after ≈: the same amount, converted by molar mass. Bounds are passed on as bounds.

One may read the MIC as the least concentration at which growth counts as inhibited. As usually defined, the inhibition is the relative decrease from the control value, in per cent.

For test [1], the system named is antigen-induced airway constriction. Briefly: Inhibitory activity against antigen-induced airway constriction in actively sensitized guinea pigs. The class given is in vivo. As to conditions: Cavia porcellus, read-out: Inhibition rate (airway constriction). As to the method:
(3) Inhibitory activity against antigen-induced airway constriction in actively sensitized guinea pigs
That is, the sensitized guinea pigs (5 guinea pigs/group) were provided with artificial respiration by inserting a tracheal cannula under urethane anesthesia (1.5 g/kg body weight, intraperitoneal administration), and then, gallamine at 1 mg/kg body weight was injected intravenously to stop spontaneous respiration of the guinea pigs. Inhalation of 0.5% aqueous solution of ovalbumin was conducted using a nebulizer for 1 minute to increase antigen-induced airway constriction, at the same time, airway pressure was recorded through a transducer. Test compound was administered into jugular vein (i.v.) of the guinea pig 3 minutes before the antigen inhalation or administered orally (p.o.) 2 hours before the antigen inhalation. As a positive control compound, theophylline which was a drug for anti-asthma was used. The effect of the compound was estimated by calculating the maximum value of airway constriction (%) in comparison with the control group, according to the following equation. [formula]

In test [2] the test system is Nycobacterium smegmatis ATCC 607. As to the kind of experiment: Antibacterial activity (MIC) against acid-fast bacteria. The class given is cell-based. As to conditions: 37° C., 40 to 42 hours. As to the method: As for acid-fast bacteria, after cultured in glycerol broth medium, there was prepared a bacterial suspension for inoculation containing about 10^6 of the bacteria per 1 ml of the medium. On the other hand, there were prepared some glycerol Czapek agar plating media with adding the test compounds, and thereto the bacterial suspension for inoculation was streaked.

Test [3] addresses T1, reverse transcriptase derived from Moloney-Murine Leukemia Virus (M-MLV) (Moloney murine leukemia virus, UniProt P03355).
T1 construct: reverse transcriptase derived from Moloney-Murine Leukemia Virus; purchased Pharmacia K. K
Briefly: Inhibiting activity against reverse transcriptase derived from M-MLV. The class given is biochemical. As to conditions: read-out: Inhibition rate (reverse transcriptase derived from M-MLV); for inhibition at 10 µM: 10 μM in the reaction mixture; for inhibition at 1 µM: 1 μM in the reaction mixture. As to the method: There was found the following point by using reverse transcriptase derived from Moloney-Murine Leukemia Virus (hereinafter referred to as "M-MLV").
The compound of the present invention was dissolved in DMSO to give a 100 mM solution thereof. Then, the solution was diluted with distilled water containing DMSO to give a solution of the test compound having a defined concentration. A mixed ratio of DMSO and distilled water was adjusted so that the concentration of DMSO at this time is 10% by volume and a final concentration of DMSO at the beginning of a reaction is 1% by volume.
The thus prepared solution of the test compound was mixed with a solution containing 50 mM of Tris--HCl buffer (pH 8.3), 8 mM of MgCl2, 30 mM of NaCl, 50 mM of dithiothreitol (made by Wako Pure Chemical Industries Ltd.), 0.2 mM of thymidine-5'-triphosphate (made by Pharmacia K. K.) and 6 U/ml of reverse transciptase derived from M-MLV (made by Pharmacia K. K.), and preincubated at 37° C. for 30 minutes. After there was added thereto 10 μg/ml of polyadenylic acid (made by PL Biochemicals Co., Ltd.), 0.01 U/ml of oligodeoxy thymidylic acid (made by Pharmacia K. K.) and 10 μCi/ml of [methyl-^3 H] thymidine-5'-triphosphate (made by Amersham Japan Co., Ltd., 47 Ci/mmol) to give a reaction mixture, the mixture was further incubated at 37° C. for 30 minutes, followed by cooling with ice to stop the reaction.
The radioactivity incorporated into deoxyribonucleic acids was measured according to the method of Linteril et al (Science 170, 447 to 449 (1967)). A defined volume of the reaction mixture was soaked into DE-81 filter paper (made by Whatman Ltd.), the filter paper was washed with 5% by weight of Na2 HPO4 solution for three times, and with distilled water and ethanol successively, and then dried. Radioactivity contained in the filter paper was measured by liquid scintillation counter to give the each radioactivity of the test solution groups.
On the other hand, the same procedure as above was carried out using DMSO-distilled water without the test compound instead of using the test solution, to give the value of radioactivity of a control group.
Reverse transcriptase derived from M-MLV inhibition rate (%) was calculated by the following equation. [formula]

Test [4] deals with Micrococcus luteus IFO 13867. As to the kind of experiment: Antibacterial activity (MIC) against Micrococcus luteus IFO 13867. The class given is cell-based. As to conditions: IFO13867, 37° C., 18 to 20 hours. As to the method:
(§1) The antibacterial activity against Gram-positive bacteria of the compound of the present invention was measured according to a standard method of Nippon Kagaku Ryoho Gakkai [Nippon Kagaku Ryoho Gakkaishi (Journal of the Chemical therapy of Japan), 29, 76(1981)].
(§2) As for gram-positive bacteria, after cultivation in Meuller Hinton broth medium (made by Difco Co., Ltd.), there was prepared a bacterial suspension for inoculation containing about 10^6 of the bacteria per 1 ml of the Meuller Hinton broth medium. On the other hand, the test compound was added to Mueller Hinton agar medium (made by Difco Co., Ltd.) so as to give agar plate medium containing test samples which are twofold serial diluted. Then, the above-mentioned bacterial suspension for inoculation was streaked to each agar medium for about 2 cm with a looped nichrome wire (inner diameter: about 1 mm).
(§3) After that the each agar plate medium was cultured at 37° C. for 18 to 20 hours, the growth of the test bacteria was determined.

Test [5] concerns Staphylococcus aureus IFO 12732. As to the kind of experiment: Antibacterial activity (MIC) against Staphylococcus aureus IFO 12732. The test is classed as cell-based. Conditions: IFO12732, 37° C., 18 to 20 hours. As to the method: as §1, §2, §3
The test system of test [6] is passive cutaneous anaphylaxis (PCA) reaction. Briefly: Inhibitory activity against homologous PCA reaction in rats. The class given is in vivo, male Wistar rats. As to conditions: Rattus norvegicus, 100 mg/kg, oral, 1 hour before antigen, read-out: Inhibition rate (PCA reaction). As to the method:
(1) Inhibitory activity against homologous PCA reaction in rats
Antiserum was prepared according to I. Mota [Immunology, 7, 681(1964)]and the PCA reaction was conducted according to Maruyama et al. [Folia Pharmacologica Japonica, 74, 179(1978}].
An ovalbumin solution dissolved in physiological saline (2 mg/ml) was injected intramuscularly into both thighs of male Wistar rats weighing 200 to 260 g in a volume of 0.5 ml/100 g body weight, and pertussis vaccine (Bordetella pertussis, 2×10^10 /ml/ Chiba Serum Institute) was intraperitoneally administered at 1 ml/rat. Twelve days after sensitization, blood was taken from posterior aorta under ether anesthesia and serum was separated and stored at -80° C.
In each group, 4 male Wistar rats weighing 180 to 210 g were used. Back of the rats was shaved and reach 0.05 ml of antiserum diluted 32 times with physiological saline was injected intradermally at four sites on the back. After 48 hours, 1 ml of a mixture of ovalbumin (2 mg/ml) as an antigen and Evans blue (10 mg/ml) in the volume ratio of 1 : 1, which was dissolved in physiological saline was injected intravenously into the tail. Thirty minutes later, the rats were bled to death under ether anesthesia and the back skin of the rats was removed. The blue-dyed area formed by pigment exudation was measured and an inhibition rate (%) was calculated as compared with control according to the following equation. [formula]
A test compound suspended in a 2.5 % aqueous solution of gum arabic containing 0.2 % Tween 80 was administered orally in a volume of 0.5 m:/100 g body weight 1 hour before the injection of antigen. To the control group, only the vehicle was administered. Tranilast which was a positive control compound was administered orally 30 minutes before the injection of antigen.

The mark [7] stands for this setting: iv, 3 minutes before antigen inhalation.

For `CC(C)c1cc(C=C2SC(NCc3ccc(N)cc3)=NC2=O)cc(C(C)C)c1O` [Compound 42], the inhibition in vivo at 5 mg/kg in test [1] (iv, 5 mg/kg, 3 minutes before antigen inhalation) was 33%. Besides, in test [2], the MIC was not above 15 µg/mL. For the same compound, the inhibition at 10 µM in test [3] was 50%.
`O=C1Nc2ccccc2C1=Cc1cc(O)c(O)c(CSc2ccccc2)c1` [Compound 11]: the inhibition in vivo at 1 mg/kg in test [1] (setting [7]) worked out at 52%. In test [1] (po, 30 mg/kg, 2 hours before antigen inhalation), the inhibition in vivo at 30 mg/kg is 26%. Further, the MIC in test [4] is 12 µg/mL (≈ 32 µM); in test [5], 25 µg/mL (≈ 66.6 µM). The inhibition at 1 µM in test [3] turned out to be 94%.
With `O=C1NN(c2ccccc2)C(=O)C1=Cc1cc(Cc2ccccc2)c(O)c(Cc2ccccc2)c1` [Compound 20], the MIC in test [4] was not above 50 µg/mL; in test [5] it was 100 µg/mL (≈ 217 µM). Also, the inhibition at 10 µM in test [3] amounted to 97%.
In the case of `O=C1NN(c2ccccc2)C(=O)C1=Cc1cc(O)c(O)c(Cc2ccccc2)c1` [Compound 24], the inhibition at 1 µM in test [3] came to 91%.
Consider `CCCCOc1cc(C=C2SC(=S)NC2=O)cc(Cc2ccccc2)c1O` [Compound 10], for which the inhibition at 10 µM in test [3] is 61%.
Take `CC(C)c1cc(C=C2SC(NCc3ccc(S(N)(=O)=O)cc3)=NC2=O)cc(C(C)C)c1O` [Compound 41]: the inhibition in vivo at 100 mg/kg in test [6] worked out at 25%. Besides, the results for the MIC in test [5] and in test [2] were 50 µg/mL (≈ 106 µM) and 25 µg/mL (≈ 52.8 µM), respectively.
For the compound `O=C1N=C(NCc2cccs2)SC1=Cc1cc(CSc2ccccc2)c(O)c(OCc2ccccc2)c1` [Compound 31], the MIC in test [2] is not above 6 µg/mL. Further, in test [3], the inhibition at 10 µM was determined as 61%.
For `O=C1NC(=S)SC1=Cc1cc(O)c(O)c(CSc2ccccc2)c1` [Compound 7], in test [1] (setting [7]), the inhibition in vivo at 1 mg/kg is 25%. Moreover, in test [3], the inhibition at 1 µM turned out to be 98%.
On the same counts, the results for `O=C1NC(=S)SC1=Cc1cc(CSc2ccccc2)c(O)c(OCc2ccccc2)c1` [Compound 8] are 43% and 98%.
In the case of `Cc1ccc(CNC2=NC(=O)C(=Cc3cc(C(C)C)c(O)c(C(C)C)c3)S2)cc1` [Compound 39], in test [6], the inhibition in vivo at 100 mg/kg was determined as 65%. Further, in test [1] (setting [7]), the inhibition in vivo at 1 mg/kg worked out at 59%.
The corresponding values for `CC(C)c1cc(C=C2SC(NCc3ccc(Cl)c(Cl)c3)=NC2=O)cc(C(C)C)c1O` [Compound 37] are 21% and 21%.
Consider `O=C1NC(=S)SC1=Cc1cc(Cc2ccccc2)c(O)c(Cc2ccccc2)c1` [Compound 2], for which the MIC in test [4] was not above 6 µg/mL; in test [5] it was 12 µg/mL (≈ 28.7 µM). Besides, the inhibition at 1 µM in test [3] amounted to 95%.
`CC(C)c1cc(C=C2SC(NCc3ccccc3)=NC2=O)cc(C(C)C)c1O` [Compound 33]: the inhibition in vivo at 100 mg/kg in test [6] was determined as 50%. In addition, the inhibition in vivo at 2 mg/kg in test [1] (iv, 2 mg/kg, 3 minutes before antigen inhalation) amounted to 26%. The same compound showed an MIC in test [2] not above 15 µg/mL.
For the compound `O=C1N=C(NCc2ccccc2)SC1=Cc1cc(Cc2ccccc2)c(O)c(Cc2ccccc2)c1` [Compound 26], the inhibition in vivo at 1 mg/kg in test [1] (setting [7]) came out at 68%. Further, in test [3], the inhibition at 10 µM worked out at 76%.
In the case of `CCCCOc1cc(C=C2SC(=S)NC2=O)cc(CSc2ccccc2)c1O` [Compound 9], in test [1] (setting [7]), the inhibition in vivo at 1 mg/kg was 20%. Also, the inhibition at 1 µM in test [3] is 73%.
Consider `CC(C)c1cc(C=C2SC(NCc3ccc(F)cc3)=NC2=O)cc(C(C)C)c1O` [Compound 35], for which the inhibition in vivo at 100 mg/kg in test [6] came out at 43%. In addition, in test [2], the MIC was 15 µg/mL (≈ 36.4 µM).
